What all share (experiment): In vitro competitive activity-based protein profiling (gel-based, FP-Rh or HT-01 probe)
Holding throughout (type): biochemical

For experiment [1], the target named is T1, ABHD6 (Mus musculus, UniProt Q8R2Y0).
T1 construct: Proteomes (mouse brain membrane fraction or cell lysates); from tissue; host or cells: mouse brain membrane fraction (or cell lysates, not specified)
T1 sequence (Q8R2Y0 1-336): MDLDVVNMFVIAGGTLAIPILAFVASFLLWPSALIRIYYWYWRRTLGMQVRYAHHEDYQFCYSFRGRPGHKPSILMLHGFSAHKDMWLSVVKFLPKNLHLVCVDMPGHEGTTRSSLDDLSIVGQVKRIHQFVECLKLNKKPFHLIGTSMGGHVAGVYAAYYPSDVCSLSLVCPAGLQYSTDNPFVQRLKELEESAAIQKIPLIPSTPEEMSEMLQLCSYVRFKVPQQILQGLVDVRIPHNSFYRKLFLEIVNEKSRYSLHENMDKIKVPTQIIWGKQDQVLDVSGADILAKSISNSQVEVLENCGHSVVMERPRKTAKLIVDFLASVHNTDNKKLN
The following applies: for inhibition at 1 µM: 1 μM inhibitor, read-out: % Inhibition at 1 μM, C = ABHD6; for inhibition at 10 µM: 10 μM inhibitor, read-out: % Inhibition at 10 μM, C = ABHD6; for IC50: mouse brain membrane fraction or cell lysates, 30 min preincubation at 37° C., read-out: Mouse (IC50 value, nM) ABHD6. In short, it runs like this: (§1)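 Mouse brain membrane or cell lysate proteomes (1.0 mg/mL) preincubated with inhibitors 30 min at 37° C, then labelled with FP-Rh or HT-01 for 30 min at 37° C. After SDS-PAGE, activity quantified from fluorescent band intensity.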

The target in experiment [2] is T2, FAAH (Mus musculus, UniProt O08914).
T2 construct: Proteomes (mouse brain membrane fraction or cell lysates); from tissue; host or cells: mouse brain membrane fraction (or cell lysates, not specified)
T2 sequence (O08914 1-579): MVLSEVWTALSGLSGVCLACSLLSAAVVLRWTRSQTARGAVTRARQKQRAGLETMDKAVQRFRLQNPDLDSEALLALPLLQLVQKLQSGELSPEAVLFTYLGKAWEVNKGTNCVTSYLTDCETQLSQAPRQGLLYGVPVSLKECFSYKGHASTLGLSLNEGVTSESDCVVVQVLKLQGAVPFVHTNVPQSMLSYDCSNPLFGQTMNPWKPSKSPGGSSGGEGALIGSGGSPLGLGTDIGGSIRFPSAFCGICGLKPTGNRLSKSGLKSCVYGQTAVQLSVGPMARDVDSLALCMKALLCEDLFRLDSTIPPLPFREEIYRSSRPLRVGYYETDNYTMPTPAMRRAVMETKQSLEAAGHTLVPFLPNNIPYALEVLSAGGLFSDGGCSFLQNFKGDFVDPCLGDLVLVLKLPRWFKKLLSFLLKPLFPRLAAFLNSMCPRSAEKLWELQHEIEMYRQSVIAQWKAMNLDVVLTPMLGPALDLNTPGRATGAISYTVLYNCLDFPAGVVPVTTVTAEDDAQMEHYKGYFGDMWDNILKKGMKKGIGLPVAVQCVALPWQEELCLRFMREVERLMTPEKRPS
The following applies: for inhibition at 1 µM: 1 μM inhibitor, read-out: % Inhibition at 1 μM, B = FAAH; for inhibition at 10 µM: 10 μM inhibitor, read-out: % Inhibition at 10 μM, B = FAAH; for IC50: mouse brain membrane fraction or cell lysates, 30 min preincubation at 37° C., read-out: Mouse (IC50 value, nM) FAAH. In short, it runs like this: as §1

The target of experiment [3] is T3, MAGL (Mus musculus, UniProt O35678).
T3 construct: Proteomes (mouse brain membrane fraction or cell lysates); from tissue; host or cells: mouse brain membrane fraction (or cell lysates, not specified)
T3 sequence (O35678 1-303): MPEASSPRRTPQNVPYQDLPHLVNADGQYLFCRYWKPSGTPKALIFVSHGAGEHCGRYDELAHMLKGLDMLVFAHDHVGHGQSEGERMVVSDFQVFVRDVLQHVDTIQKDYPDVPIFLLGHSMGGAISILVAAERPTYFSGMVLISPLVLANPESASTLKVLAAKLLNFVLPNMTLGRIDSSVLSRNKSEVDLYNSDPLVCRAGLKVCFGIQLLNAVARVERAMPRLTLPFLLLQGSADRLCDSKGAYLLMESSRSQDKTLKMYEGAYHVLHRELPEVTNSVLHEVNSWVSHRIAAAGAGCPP
The following applies: for inhibition at 1 µM: 1 μM inhibitor; for inhibition at 10 µM: 10 μM inhibitor; for IC50: mouse brain membrane fraction or cell lysates, 30 min preincubation at 37° C., read-out: Mouse (IC50 value, nM) MAGL. In a few lines: as §1

For experiment [4], the target named is T4, PLA2G7 (Mus musculus, UniProt Q60963).
T4 construct: Proteomes (mouse brain membrane fraction or cell lysates); from tissue; host or cells: mouse brain membrane fraction (or cell lysates, not specified)
T4 sequence (Q60963 22-440): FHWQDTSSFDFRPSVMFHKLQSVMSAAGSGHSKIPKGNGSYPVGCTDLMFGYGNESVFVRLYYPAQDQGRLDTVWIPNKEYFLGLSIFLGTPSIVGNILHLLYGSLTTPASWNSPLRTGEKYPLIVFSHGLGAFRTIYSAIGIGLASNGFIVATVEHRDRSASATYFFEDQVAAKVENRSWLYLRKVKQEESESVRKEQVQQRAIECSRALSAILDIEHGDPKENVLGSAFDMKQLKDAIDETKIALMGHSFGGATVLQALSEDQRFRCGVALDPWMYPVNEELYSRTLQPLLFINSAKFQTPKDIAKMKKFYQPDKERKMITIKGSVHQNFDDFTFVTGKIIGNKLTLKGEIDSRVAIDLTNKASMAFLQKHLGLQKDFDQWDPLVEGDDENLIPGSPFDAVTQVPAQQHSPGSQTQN
The following applies: for inhibition at 1 µM: 1 μM inhibitor, read-out: % Inhibition at 1 μM, D = PLA2G7; for inhibition at 10 µM: 10 μM inhibitor, read-out: % Inhibition at 10 μM, D = PLA2G7. In short, it runs like this: as §1

As a reminder, the inhibition is the percentage by which the read-out fell short of the control. The IC50 is the concentration that gives 50% inhibition. As to `Cc1cc(-c2ccccc2)ccc1CN1CCN(C(=O)n2cc(C(=O)N3CCCC3)cn2)CC1` [Example 85, (4-((3-Methyl-[1,1′-biphenyl]-4-yl)methyl)piperazin-1-yl)(4-(pyrrolidine-1-carbonyl)-1H-pyrazol-1-yl)methanone], the inhibition at 1 µM is above 75% in experiment [1], above 75% in experiment [2], above 75% in experiment [3] and below 25% in experiment [4]. Further, the inhibition at 10 µM in experiment [1], in experiment [2], in experiment [3] and in experiment [4] was above 75% each time. In addition, the IC50 was 100 to 1000 nM in experiment [1], below 100 nM in experiment [2] and 100 to 1000 nM in experiment [3].

Take `N#Cc1cnn(C(=O)NCCCCCc2ccccc2)c1` [Example 39, 4-Cyano-N-(5-phenylpentyl)-1H-pyrazole-1-carboxamide]: the inhibition at 1 µM in experiment [1], in experiment [2], in experiment [3] and in experiment [4] was below 25% throughout. The inhibition at 10 µM in experiment [1] is below 25%; in experiment [2], above 75%; in experiment [3] it was 25 to 75%; in experiment [4] it was below 25%.

As for `CN1CCN(C(=O)n2cc(Cl)cn2)CC1` [Example 185, (4-Chloro-1H-pyrazol-1-yl)(4-methylpiperazin-1-yl)methanone], the inhibition at 1 µM was above 75% in experiment [1], below 25% in experiment [2], below 25% in experiment [3] and below 25% in experiment [4]. The inhibition at 10 µM in experiment [1] was above 75%; in experiment [2], above 75%; in experiment [3], 25 to 75%; in experiment [4], above 75%.

Consider `O=C(N1CCCC1)n1cc(C(F)(F)F)cn1` [Example 199, Pyrrolidin-1-yl(4-(trifluoromethyl)-1H-pyrazol-1-yl)methanone], for which the inhibition at 1 µM in experiment [1] was 25 to 75%; in experiment [2], above 75%; in experiment [3], below 25%; in experiment [4], 25 to 75%. Further, the inhibition at 10 µM in experiment [1], in experiment [2], in experiment [3] and in experiment [4] was above 75% throughout.

`CCN(Cc1cccc(Cl)c1)C(=O)n1cc(Cl)cn1` [Example 134, 4-Chloro-N-(3-chlorobenzyl)-N-ethyl-1H-pyrazole-1-carboxamide]: the inhibition at 1 µM was below 25% in experiment [1], above 75% in experiment [2], 25 to 75% in experiment [3] and below 25% in experiment [4]. In addition, the inhibition at 10 µM in experiment [1] is above 75%; in experiment [2] it was above 75%; in experiment [3] it was above 75%; in experiment [4], below 25%. In addition, the results for the IC50 in experiment [1], in experiment [2] and in experiment [3] were above 1000 nM, 100 to 1000 nM and above 1000 nM, respectively.

For the molecule `CS(=O)(=O)N1CCCN(C(=O)n2cc(C#N)cn2)CC1` [Example 178, 1-(4-(methylsulfonyl)-1,4-diazepane-1-carbonyl)-1H-pyrazole-4-carbonitrile], the inhibition at 1 µM in experiment [1], in experiment [2], in experiment [3] and in experiment [4] was below 25% each time. Also, the inhibition at 10 µM in experiment [1] is above 75%; in experiment [2] it was above 75%; in experiment [3], above 75%; in experiment [4], 25 to 75%.

As for `N#Cc1cnn(C(=O)N2CCOCC2)c1` [Example 205, 1-(Morpholine-4-carbonyl)-1H-pyrazole-4-carbonitrile], the inhibition at 1 µM in experiment [1] is 25 to 75%; in experiment [2] it was above 75%; in experiment [3], below 25%; in experiment [4], above 75%. Moreover, the inhibition at 10 µM in experiment [1] is above 75%; in experiment [2], above 75%; in experiment [3], 25 to 75%; in experiment [4], above 75%.

Take `Cc1cc(-c2ccccc2)ccc1CN1CCN(C(=O)n2cc(Cl)cn2)CC1` [Example 137, (4-Chloro-1H-pyrazol-1-yl)(4-((3-methylbiphenyl-4-yl)methyl)piperazin-1-yl)methanone]: the inhibition at 1 µM is above 75% in experiment [1], above 75% in experiment [2], above 75% in experiment [3] and below 25% in experiment [4]. Further, the inhibition at 10 µM in experiment [1] was above 75%; in experiment [2], above 75%; in experiment [3], above 75%; in experiment [4] it was 25 to 75%. Further, the IC50 in experiment [1] was 100 to 1000 nM; in experiment [2], below 100 nM; in experiment [3] it was below 100 nM; in experiment [4] (mouse brain membrane fraction or cell lysates, 30 min preincubation at 37° C.), above 1000 nM.

`O=C(N1CCN(c2cccc(N3CCOCC3)c2)CC1)n1cc(C(F)(F)F)cn1` [Example 237, (4-(3-Morpholinophenyl)piperazin-1-yl)(4-(trifluoromethyl)-1H-pyrazol-1-yl)methanone]: the inhibition at 1 µM in experiment [1], in experiment [2], in experiment [3] and in experiment [4] was above 75% throughout. For the same molecule, the inhibition at 10 µM in experiment [1], in experiment [2], in experiment [3] and in experiment [4] was above 75% each time.

With `CN(CCN(C)S(C)(=O)=O)C(=O)n1cc(Cl)cn1` [Example 198, 4-Chloro-N-methyl-N-(2-(N-methylmethylsulfonamido)ethyl)-1H-pyrazole-1-carboxamide], the inhibition at 10 µM in experiment [1], in experiment [2], in experiment [3] and in experiment [4] was below 25% throughout.

Take `Cc1cccc(N2CCN(C(=O)n3cc(C(F)(F)F)cn3)CC2)c1` [Example 231, (4-m-Tolylpiperazin-1-yl)(4-(trifluoromethyl)-1H-pyrazol-1-yl)methanone]: the inhibition at 1 µM in experiment [1], in experiment [2], in experiment [3] and in experiment [4] was above 75% throughout. Further, the inhibition at 10 µM in experiment [1], in experiment [2], in experiment [3] and in experiment [4] was above 75% throughout.

Source of the values: patent publication US10093630B2, “Pyrazole compounds and methods of making and using same” (ABIDE THERAPEUTICS, INC., priority 2014, dated 2018).
